{"source": "paper PMC7673538", "about": "(PLoS Biology, 2020)", "key": {"[1]": {"tested_on": "CV-A24v", "assay": "microbe, parasite or virus in culture", "type": "cell-based, coxsackievirus A24v"}, "[2]": {"tested_on": "CV-B3", "assay": "microbe, parasite or virus in culture", "type": "cell-based, coxsackievirus B3", "conditions": "for EC50: Enterovirus B"}, "[3]": {"tested_on": "CV-B3", "assay": "microbe, parasite or virus in culture", "type": "cell-based, coxsackievirus B3", "conditions": "Enterovirus B"}, "[4]": {"assay": "in vitro", "conditions": "human"}, "[5]": {"tested_on": "representative EVs and RVs", "type": "cell-based"}, "[6]": {"target": "T1, human SERT (Homo sapiens, UniProt P31645)", "T1 construct": "expressed in transfected cells; host or cells: HEK293 (gift of Dr. Hoener, F. Hoffmann-La Roche)", "T1 sequence (P31645 whole entry)": "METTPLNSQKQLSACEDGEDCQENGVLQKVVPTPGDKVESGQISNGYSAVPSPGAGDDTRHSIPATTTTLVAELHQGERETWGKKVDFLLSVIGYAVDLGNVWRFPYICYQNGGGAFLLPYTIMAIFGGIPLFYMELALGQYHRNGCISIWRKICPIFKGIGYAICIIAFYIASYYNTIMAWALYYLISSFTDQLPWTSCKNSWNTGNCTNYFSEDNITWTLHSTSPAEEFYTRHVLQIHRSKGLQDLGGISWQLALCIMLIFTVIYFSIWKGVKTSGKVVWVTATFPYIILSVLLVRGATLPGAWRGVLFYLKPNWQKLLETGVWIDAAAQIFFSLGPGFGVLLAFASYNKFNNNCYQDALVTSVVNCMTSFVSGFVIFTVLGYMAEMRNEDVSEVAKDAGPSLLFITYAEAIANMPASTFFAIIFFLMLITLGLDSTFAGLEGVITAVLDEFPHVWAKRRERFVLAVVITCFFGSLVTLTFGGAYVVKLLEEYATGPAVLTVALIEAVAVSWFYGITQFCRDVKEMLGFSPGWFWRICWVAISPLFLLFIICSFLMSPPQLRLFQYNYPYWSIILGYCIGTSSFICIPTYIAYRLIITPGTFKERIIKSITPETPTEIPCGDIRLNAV", "type": "cell-based", "conditions": "for SERT, Mean (Figure 8B): Control = 100.00; for SERT, Mean as % (Figure 8B): Control = 100%"}, "[7]": {"tested_on": "EV-A71", "assay": "microbe, parasite or virus in culture", "type": "cell-based, enterovirus A71", "conditions": "Enterovirus A"}, "[8]": {"tested_on": "HeLa R19 cells"}, "[9]": {"assay": "in vitro", "conditions": "human", "remark": "listed apart in the source"}, "[10]": {"tested_on": "HRV-B14", "assay": "microbe, parasite or virus in culture", "type": "cell-based, human rhinovirus", "conditions": "Human rhinovirus sp."}, "[11]": {"target": "T2, human NET (Homo sapiens, UniProt P23975)", "T2 construct": "expressed in transfected cells; host or cells: HEK293 (gift of Dr. Hoener, F. Hoffmann-La Roche)", "T2 sequence (P23975 whole entry)": "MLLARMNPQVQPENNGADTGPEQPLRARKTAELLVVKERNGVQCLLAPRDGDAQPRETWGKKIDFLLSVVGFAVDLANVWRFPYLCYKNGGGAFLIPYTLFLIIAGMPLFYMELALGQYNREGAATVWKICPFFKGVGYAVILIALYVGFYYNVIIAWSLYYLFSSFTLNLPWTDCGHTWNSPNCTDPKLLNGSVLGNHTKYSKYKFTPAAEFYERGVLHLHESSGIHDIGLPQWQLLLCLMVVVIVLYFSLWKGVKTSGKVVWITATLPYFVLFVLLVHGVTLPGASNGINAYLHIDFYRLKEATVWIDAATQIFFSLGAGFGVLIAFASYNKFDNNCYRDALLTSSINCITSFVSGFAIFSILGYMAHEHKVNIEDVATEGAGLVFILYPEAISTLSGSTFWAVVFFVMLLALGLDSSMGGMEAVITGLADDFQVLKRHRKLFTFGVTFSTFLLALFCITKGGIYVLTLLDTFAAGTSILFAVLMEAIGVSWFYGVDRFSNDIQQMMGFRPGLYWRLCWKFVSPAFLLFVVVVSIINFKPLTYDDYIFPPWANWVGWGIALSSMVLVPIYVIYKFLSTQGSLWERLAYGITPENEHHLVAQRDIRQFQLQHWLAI", "type": "cell-based", "conditions": "for NET, Mean (Figure 8B): Control = 100; for NET, Mean as % (Figure 8B): Control = 100%"}, "[12]": {"tested_on": "PV-1", "assay": "microbe, parasite or virus in culture", "type": "cell-based, poliovirus 1", "conditions": "Enterovirus C"}, "[13]": {"tested_on": "CV-B3", "assay": "microbe, parasite or virus in culture", "type": "cell-based, coxsackievirus B3", "conditions": "Enterovirus B, CVB3, BGM"}, "[14]": {"tested_on": "HRV-A2", "assay": "microbe, parasite or virus in culture", "type": "cell-based, human rhinovirus", "conditions": "Human rhinovirus sp., HRVA2, HeLa R19, read-out: EC50 HRV-A2"}, "[15]": {"assay": "in vitro", "conditions": "monkey"}}, "note": "Where “and” joins values, the source holds several entries; their conditions need not be identical. Equal values may be shown once. Read-outs that look alike come from different tables or passages of the source.", "data": [{"smiles": "O=C(c1ccco1)N(Cc1ccc(F)cc1)c1ccccc1", "note": "[Compound 19b, N-(4-Fluorobenzyl)-N-phenylfuran-2-carboxamide]", "values": [{"measurement": "EC50", "setting": "[1]; Coxsackievirus, HeLa R19, read-out: EC50 CV-A24v strain 110386", "result": "2530 ± 450", "unit": "nM"}, {"measurement": "EC50", "setting": "[1]; Coxsackievirus, HeLa R19, read-out: EC50 CV-A24v strain 110389", "result": "5650 ± 230", "unit": "nM"}, {"measurement": "EC50", "setting": "[1]; Coxsackievirus, HeLa R19, read-out: EC50 CV-A24v strain 110390", "result": "4160 ± 170", "unit": "nM"}, {"measurement": "EC50", "setting": "[1]; Coxsackievirus, HeLa R19, read-out: EC50 CV-A24v strain 110392", "result": "4350 ± 180", "unit": "nM"}, {"measurement": "EC50", "setting": "[1]; Coxsackievirus, HeLa R19, read-out: EC50 Exp2", "result": 2980, "unit": "nM"}, {"measurement": "EC50", "setting": "[1]; read-out: EC50 Exp2", "result": "5420 nM and 4320 nM and 4530 nM"}, {"measurement": "cross-resistance of 19d-resistant CV-B3 virus pools (in words)", "setting": "[2]", "result": "cross-resistant"}, {"measurement": "increase or decrease of antiviral activity against CV-B3", "setting": "[2]", "result": "less than 3 fold"}, {"measurement": "EC50", "setting": "[2]; CVB3, HeLa R19, read-out: CV-B3 EC50 Average", "result": 830, "unit": "nM"}, {"measurement": "EC50", "setting": "[2]; CVB3, HeLa R19, read-out: CV-B3 Exp 1 EC50", "result": 730, "unit": "nM"}, {"measurement": "EC50", "setting": "[2]; CVB3, HeLa R19, read-out: CV-B3 Exp2 EC50", "result": 930, "unit": "nM"}, {"measurement": "EC50", "setting": "[2]; CVB3, HeLa R19, read-out: EC50 Exp1", "result": 220, "unit": "nM"}, {"measurement": "EC50", "setting": "[2]; CVB3, HeLa R19, read-out: EC50 HelaR19 Average", "result": 680, "unit": "nM"}, {"measurement": "EC50", "setting": "[2]; CVB3, HeLa R19, read-out: Exp 1 EC50 HelaR19", "result": 460, "unit": "nM"}, {"measurement": "EC50", "setting": "[2]; CVB3, HeLa R19, read-out: Exp 2 EC50 HelaR19", "result": 890, "unit": "nM"}, {"measurement": "EC50", "setting": "[2]; CVB3 / genotype 2c, HeLa R19, read-out: EC50 CV-B3 WT", "result": "290 ± 50", "unit": "nM"}, {"measurement": "EC50", "setting": "[3]; CVB3, HAP1, read-out: EC50 Hap1 Average", "result": 350, "unit": "nM"}, {"measurement": "EC50", "setting": "[3]; CVB3, HAP1, read-out: Exp 1 EC50 Hap1", "result": 150, "unit": "nM"}, {"measurement": "EC50", "setting": "[3]; CVB3, HAP1, read-out: Exp 2 EC50 Hap1", "result": 550, "unit": "nM"}, {"measurement": "CC50", "setting": "[4]; CC50", "result": "> 100000", "unit": "nM"}, {"measurement": "CC50", "setting": "[4]; CC50 Hap1 Average", "result": "> 100000", "unit": "nM"}, {"measurement": "CC50", "setting": "[4]; Exp 1 CC50 Hap1", "result": "> 100000", "unit": "nM"}, {"measurement": "CC50", "setting": "[4]; Exp 2 CC50 Hap1", "result": "> 100000", "unit": "nM"}, {"measurement": "inhibition of contemporary/clinical isolates of EV-A71, CV-A24v and EV-D68 (in words)", "setting": "[5]", "result": "inhibited all clinical isolates of EV-A71, CV-A24v, and EV-D68 tested"}, {"measurement": "spectrum of antiviral activity (in words)", "setting": "[5]", "result": "inhibited all representative EVs and RVs"}, {"measurement": "SERT, Mean (Figure 8B)", "setting": "[6]; 1µM", "result": 104.08}, {"measurement": "SERT, Mean as % (Figure 8B)", "setting": "[6]; 1µM", "result": 104, "unit": "%"}, {"measurement": "SERT, Mean (Figure 8B)", "setting": "[6]; 100µM", "result": 84.31}, {"measurement": "SERT, Mean as % (Figure 8B)", "setting": "[6]; 100µM", "result": 84, "unit": "%"}, {"measurement": "inhibition of SERT-mediated uptake (in words)", "setting": "[6]; HEK293 cells expressing human SERT, 1 and 100 μM", "result": "neither 12a, 19b, 19d, nor the combined compound 12b inhibited"}, {"measurement": "EC50", "setting": "[7]; EVA71, HeLa R19, read-out: EC50 Average", "result": 2020, "unit": "nM"}, {"measurement": "EC50", "setting": "[7]; EVA71, HeLa R19, read-out: EC50 EV-A71", "result": "890 ± 90", "unit": "nM"}, {"measurement": "EC50", "setting": "[7]; EVA71, HeLa R19, read-out: EC50 EV-A71 strain BrCr", "result": "1120 ± 150", "unit": "nM"}, {"measurement": "EC50", "setting": "[7]; EVA71, HeLa R19, read-out: EC50 EV-A71 strain TW/2728/04", "result": "2100 ± 80", "unit": "nM"}, {"measurement": "EC50", "setting": "[7]; EVA71, HeLa R19, read-out: EC50 EV-A71 strain TW/2945/98", "result": "2020 ± 150", "unit": "nM"}, {"measurement": "EC50", "setting": "[7]; EVA71, HeLa R19, read-out: EC50 EV-A71 strain TW/70811/08", "result": "920 ± 170", "unit": "nM"}, {"measurement": "EC50", "setting": "[7]; EVA71, HeLa R19, read-out: EC50 EV-A71 strain TW/72232/04", "result": "3830 ± 250", "unit": "nM"}, {"measurement": "EC50", "setting": "[7]; EVA71, HeLa R19, read-out: EC50 EV-A71 strain TW/96016/08", "result": "1890 ± 20", "unit": "nM"}, {"measurement": "EC50", "setting": "[7]; EVA71 / genotype 2c, HeLa R19, read-out: EC50 EV-A71 WT", "result": "820 ± 120", "unit": "nM"}, {"measurement": "cytotoxicity (in words)", "setting": "[8]", "result": "did not show any cytotoxicity"}, {"measurement": "CC50", "setting": "[9]; CC50 Average", "result": "> 30000", "unit": "nM"}, {"measurement": "CC50", "setting": "[9]; CC50 HelaR19 Average", "result": "> 100000", "unit": "nM"}, {"measurement": "CC50", "setting": "[9]; Exp 1 CC50", "result": "> 30000", "unit": "nM"}, {"measurement": "CC50", "setting": "[9]; Exp 1 CC50 HelaR19", "result": "> 100000", "unit": "nM"}, {"measurement": "CC50", "setting": "[9]; Exp2 CC50", "result": "> 30000", "unit": "nM"}, {"measurement": "CC50", "setting": "[9]; Exp 2 CC50 HelaR19", "result": "> 100000", "unit": "nM"}, {"measurement": "EC50", "setting": "[10]; HRVB14, HeLa R19, read-out: EC50 Exp1", "result": 11100, "unit": "nM"}, {"measurement": "EC50", "setting": "[10]; HRVB14, HeLa R19, read-out: EC50 Exp2", "result": 9900, "unit": "nM"}, {"measurement": "EC50", "setting": "[10]; HRVB14, HeLa R19, read-out: EC50 HRV-B14", "result": "10500 ± 610", "unit": "nM"}, {"measurement": "NET, Mean (Figure 8B)", "setting": "[11]; 1µM", "result": 124.304}, {"measurement": "NET, Mean as % (Figure 8B)", "setting": "[11]; 1µM", "result": 124, "unit": "%"}, {"measurement": "NET, Mean (Figure 8B)", "setting": "[11]; 100µM", "result": 113.384}, {"measurement": "NET, Mean as % (Figure 8B)", "setting": "[11]; 100µM", "result": 113, "unit": "%"}, {"measurement": "inhibition of NET function (in words)", "setting": "[11]; HEK293 cells expressing human NET, 1 μM or 100 μM", "result": "neither 12a, 19b, 19d, nor the combined compound 12b inhibited"}, {"measurement": "EC50", "setting": "[12]; HeLa R19, read-out: EC50 Exp1", "result": 8500, "unit": "nM"}, {"measurement": "EC50", "setting": "[12]; HeLa R19, read-out: EC50 Exp2", "result": 9650, "unit": "nM"}, {"measurement": "EC50", "setting": "[12]; HeLa R19, read-out: EC50 PV-1", "result": "9080 ± 540", "unit": "nM"}, {"measurement": "EC50", "setting": "[13]; read-out: EC50 BGM Average", "result": 140, "unit": "nM"}, {"measurement": "EC50", "setting": "[13]; read-out: Exp 1 EC50 BGM", "result": 180, "unit": "nM"}, {"measurement": "EC50", "setting": "[13]; read-out: Exp 2 EC50 BGM", "result": 90, "unit": "nM"}, {"measurement": "EC50", "setting": "[14]", "result": "22200 ± 610", "unit": "nM"}, {"measurement": "CC50", "setting": "[15]; CC50", "result": "> 100000", "unit": "nM"}, {"measurement": "CC50", "setting": "[15]; CC50 BGM Average", "result": "> 100000", "unit": "nM"}, {"measurement": "CC50", "setting": "[15]; Exp 1 CC50 BGM", "result": "> 100000", "unit": "nM"}, {"measurement": "CC50", "setting": "[15]; Exp 2 CC50 BGM", "result": "> 100000", "unit": "nM"}]}]}
